This assay has as its system CD2F1 mice, L1210 leukemia ip, survival T/C. Nature of the assay: NCI In Vivo Anticancer Drug Screen. Data for tumor model L1210 Leukemia (intraperitoneal) in CD2F1 (CDF1) mice. The following applies: higher = longer survival. An outline of the steps:
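Vehicle-treated tumor-bearing mice served as controls (C) for compound-treated mice (T). Reported figure is T divided by C.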

The structures appear in SMILES notation. Where “and” joins values, the source holds several entries; their conditions need not be identical. Equal values may be shown once. Inconclusive results and toxic doses are left out.

Consider `O=C(O)c1ccc(C(=O)O)c(C(=O)O)c1.[NH-]C1CCCCC1[NH-].[Pt+2]`, for which the T/C was 123 % of control (endpoint: mean survival time, dose: 0.39 mg/kg/injection, schedule: Q01DX009 (ip), vehicle: sodium bicarbonate); 115 % of control (endpoint: mean survival time, dose: 0.39 mg/kg/injection, schedule: Q04DX003 (ip), vehicle: other); 174 % of control and 200 % of control (endpoint: mean survival time, dose: 0.78 mg/kg/injection, schedule: Q01DX009 (ip), vehicle: sodium bicarbonate); 120 % of control (endpoint: mean survival time, dose: 0.78 mg/kg/injection, schedule: Q04DX003 (ip), vehicle: other); 119 % of control (endpoint: mean survival time, dose: 0.78 mg/kg/injection, schedule: Q04DX003 (ip), vehicle: sodium bicarbonate); 172 % of control and 325 % of control (endpoint: mean survival time, dose: 1.56 mg/kg/injection, schedule: Q01DX009 (ip), vehicle: sodium bicarbonate). The T/C is 119 % of control (endpoint: mean survival time, dose: 1.56 mg/kg/injection, schedule: Q04DX003 (ip), vehicle: sodium bicarbonate); 155 % of control and 196 % of control and 251 % of control (endpoint: mean survival time, dose: 3.12 mg/kg/injection, schedule: Q01DX009 (ip), vehicle: sodium bicarbonate); 183 % of control (endpoint: mean survival time, dose: 3.13 mg/kg/injection, schedule: Q04DX003 (ip), vehicle: other); 190 % of control (endpoint: mean survival time, dose: 6.25 mg/kg/injection, schedule: Q01DX009 (ip), vehicle: sodium bicarbonate); 240 % of control and 263 % of control (endpoint: mean survival time, dose: 6.25 mg/kg/injection, schedule: Q04DX003 (ip), vehicle: other); 158 % of control (endpoint: mean survival time, dose: 6.25 mg/kg/injection, schedule: Q04DX003 (ip), vehicle: sodium bicarbonate). For the same molecule, the T/C is, setting by setting: (endpoint: mean survival time, dose: 8.0 mg/kg/injection, schedule: Q01DX005 (oral), vehicle: sodium bicarbonate) 113 % of control and 120 % of control and 101 % of control; (endpoint: mean survival time, dose: 12.5 mg/kg/injection, schedule: Q01DX009 (ip), vehicle: sodium bicarbonate) 227 % of control and 97 % of control; (endpoint: mean survival time, dose: 12.5 mg/kg/injection, schedule: Q04DX003 (ip), vehicle: other) 273 % of control and 291 % of control; (endpoint: mean survival time, dose: 12.5 mg/kg/injection, schedule: Q04DX003 (ip), vehicle: sodium bicarbonate) 247 % of control; (endpoint: mean survival time, dose: 16.0 mg/kg/injection, schedule: Q01DX005 (oral), vehicle: sodium bicarbonate) 100 % of control and 105 % of control; (endpoint: mean survival time, dose: 25.0 mg/kg/injection, schedule: Q04DX003 (ip), vehicle: other) 328 % of control and 444 % of control. Further, the T/C by setting is: (endpoint: mean survival time, dose: 25.0 mg/kg/injection, schedule: Q04DX003 (ip), vehicle: sodium bicarbonate) 186 % of control; (endpoint: mean survival time, dose: 32.0 mg/kg/injection, schedule: Q01DX005 (oral), vehicle: sodium bicarbonate) 108 % of control; (endpoint: mean survival time, dose: 64.0 mg/kg/injection, schedule: Q01DX005 (oral), vehicle: sodium bicarbonate) 108 % of control; (endpoint: mean survival time, dose: 128.0 mg/kg/injection, schedule: Q01DX005 (oral), vehicle: sodium bicarbonate) 113 % of control and 103 % of control; (endpoint: mean survival time, dose: 256.0 mg/kg/injection, schedule: Q01DX005 (oral), vehicle: sodium bicarbonate) 116 % of control and 121 % of control and 111 % of control; (endpoint: median survival time, dose: 0.58 mg/kg/injection, schedule: Q01DX009 (ip), vehicle: sodium bicarbonate) 156 % of control. Besides, the T/C was 101 % of control and 112 % of control (endpoint: median survival time, dose: 0.87 mg/kg/injection, schedule: Q01DX009 (ip), vehicle: water); 361 % of control (endpoint: median survival time, dose: 1.2 mg/kg/injection, schedule: Q01DX009 (ip), vehicle: sodium bicarbonate); 115 % of control and 107 % of control (endpoint: median survival time, dose: 1.3 mg/kg/injection, schedule: Q01DX009 (ip), vehicle: water); 313 % of control (endpoint: median survival time, dose: 1.8 mg/kg/injection, schedule: Q01DX009 (ip), vehicle: sodium bicarbonate); 122 % of control and 101 % of control (endpoint: median survival time, dose: 2.0 mg/kg/injection, schedule: Q01DX009 (ip), vehicle: water); 240 % of control (endpoint: median survival time, dose: 2.7 mg/kg/injection, schedule: Q01DX009 (ip), vehicle: sodium bicarbonate). Also, the T/C was 357 % of control (endpoint: median survival time, dose: 3.0 mg/kg/injection, schedule: Q01DX009 (ip), vehicle: sodium bicarbonate); 154 % of control and 280 % of control (endpoint: median survival time, dose: 3.13 mg/kg/injection, schedule: Q04DX003 (ip), vehicle: other); 174 % of control (endpoint: median survival time, dose: 3.13 mg/kg/injection, schedule: Q04DX003 (ip), vehicle: sodium bicarbonate); 107 % of control (endpoint: median survival time, dose: 3.5 mg/kg/injection, schedule: Q01DX009 (ip), vehicle: water); 166 % of control (endpoint: median survival time, dose: 4.0 mg/kg/injection, schedule: Q01DX009 (ip), vehicle: sodium bicarbonate); 237 % of control (endpoint: median survival time, dose: 4.5 mg/kg/injection, schedule: Q01DX009 (ip), vehicle: sodium bicarbonate). In addition, the T/C is, setting by setting: (endpoint: median survival time, dose: 5.0 mg/kg/injection, schedule: Q04DX003 (ip), vehicle: sodium bicarbonate) 176 % of control and 186 % of control and 195 % of control; (endpoint: median survival time, dose: 5.24 mg/kg/injection, schedule: Q04DX003 (ip), vehicle: sodium bicarbonate) 158 % of control; (endpoint: median survival time, dose: 5.3 mg/kg/injection, schedule: Q01DX009 (ip), vehicle: sodium bicarbonate) 182 % of control; (endpoint: median survival time, dose: 6.25 mg/kg/injection, schedule: Q04DX003 (ip), vehicle: other) 202 % of control and 313 % of control; (endpoint: median survival time, dose: 6.25 mg/kg/injection, schedule: Q04DX003 (ip), vehicle: saline) 265 % of control; (endpoint: median survival time, dose: 6.25 mg/kg/injection, schedule: Q04DX003 (ip), vehicle: sodium bicarbonate) 154 % of control and 348 % of control. Besides, the T/C by setting is: (endpoint: median survival time, dose: 7.78 mg/kg/injection, schedule: Q04DX003 (ip), vehicle: sodium bicarbonate) 198 % of control; (endpoint: median survival time, dose: 8.0 mg/kg/injection, schedule: Q01DX009 (ip), vehicle: water) 180 % of control; (endpoint: median survival time, dose: 8.3 mg/kg/injection, schedule: Q01DX009 (ip), vehicle: water) 277 % of control and 108 % of control; (endpoint: median survival time, dose: 10.0 mg/kg/injection, schedule: Q04DX003 (ip), vehicle: sodium bicarbonate) 231 % of control and 247 % of control and 430 % of control; (endpoint: median survival time, dose: 11.81 mg/kg/injection, schedule: Q04DX003 (ip), vehicle: sodium bicarbonate) 295 % of control; (endpoint: median survival time, dose: 12.0 mg/kg/injection, schedule: Q01DX009 (ip), vehicle: water) 298 % of control. In addition, the T/C was 202 % of control (endpoint: median survival time, dose: 12.5 mg/kg/injection, schedule: Q04DX003 (ip), vehicle: other); 361 % of control (endpoint: median survival time, dose: 12.5 mg/kg/injection, schedule: Q04DX003 (ip), vehicle: saline); 309 % of control and 348 % of control (endpoint: median survival time, dose: 12.5 mg/kg/injection, schedule: Q04DX003 (ip), vehicle: sodium bicarbonate); 231 % of control (endpoint: median survival time, dose: 13.0 mg/kg/injection, schedule: Q04DX003 (ip), vehicle: sodium bicarbonate); 240 % of control (endpoint: median survival time, dose: 16.0 mg/kg/injection, schedule: Q01DX009 (ip), vehicle: water); 214 % of control (endpoint: median survival time, dose: 17.74 mg/kg/injection, schedule: Q04DX003 (ip), vehicle: sodium bicarbonate). In addition, the T/C runs as follows: (endpoint: median survival time, dose: 20.0 mg/kg/injection, schedule: Q01DX001 (ip), vehicle: sodium bicarbonate) 174 % of control; (endpoint: median survival time, dose: 25.0 mg/kg/injection, schedule: Q04DX003 (ip), vehicle: saline) 361 % of control; (endpoint: median survival time, dose: 25.0 mg/kg/injection, schedule: Q04DX003 (ip), vehicle: sodium bicarbonate) 357 % of control; (endpoint: median survival time, dose: 26.64 mg/kg/injection, schedule: Q04DX003 (ip), vehicle: sodium bicarbonate) 345 % of control; (endpoint: median survival time, dose: 30.0 mg/kg/injection, schedule: Q01DX001 (ip), vehicle: sodium bicarbonate) 170 % of control and 175 % of control and 333 % of control; (endpoint: median survival time, dose: 30.0 mg/kg/injection, schedule: Q04DX003 (ip), vehicle: sodium bicarbonate) 323 % of control. The T/C reads like this: (endpoint: median survival time, dose: 40.0 mg/kg/injection, schedule: Q01DX001 (ip), vehicle: sodium bicarbonate) 198 % of control and 714 % of control; (endpoint: median survival time, dose: 50.0 mg/kg/injection, schedule: Q01DX001 (ip), vehicle: sodium bicarbonate) 210 % of control; (endpoint: median survival time, dose: 50.0 mg/kg/injection, schedule: Q04DX003 (ip), vehicle: sodium bicarbonate) 345 % of control; (endpoint: median survival time, dose: 64.0 mg/kg/injection, schedule: Q01DX009 (ip), vehicle: water) 89 % of control.

As for `CSc1nc(=O)[nH]c2c1c1c(N)ncnc1n2C1OC(CO)C(O)C1O` (configuration not stated), the T/C reads like this: (endpoint: mean survival time, dose: 12.5 mg/kg/injection, schedule: Q01DX005 (ip), vehicle: distilled water + Tween-80) 104 % of control; (endpoint: mean survival time, dose: 25.0 mg/kg/injection, schedule: Q01DX005 (ip), vehicle: distilled water + Tween-80) 97 % of control; (endpoint: mean survival time, dose: 50.0 mg/kg/injection, schedule: Q01DX005 (ip), vehicle: distilled water + Tween-80) 104 % of control; (endpoint: mean survival time, dose: 100.0 mg/kg/injection, schedule: Q01DX005 (ip), vehicle: distilled water + Tween-80) 100 % of control; (endpoint: mean survival time, dose: 200.0 mg/kg/injection, schedule: Q01DX005 (ip), vehicle: distilled water + Tween-80) 104 % of control.

Consider `Cc1cn(CC(O)c2cc3ccccc3[nH]2)c(=O)[nH]c1=O` (configuration not stated), for which the T/C (endpoint: mean survival time, dose: 100.0 mg/kg/injection, schedule: Q04DX002 (ip), vehicle: saline with Tween-80) is 97 % of control; the T/C (endpoint: mean survival time, dose: 200.0 mg/kg/injection, schedule: Q04DX002 (ip), vehicle: saline with Tween-80) was 97 % of control; the T/C (endpoint: mean survival time, dose: 400.0 mg/kg/injection, schedule: Q04DX002 (ip), vehicle: saline with Tween-80) is 93 % of control.

Source of the values: PubChem BioAssay AID256 (DTP/NCI, 2004).
